Laboratory results as given in ChEMBL document CHEMBL1158176, “Flexible computational docking studies of new aminoglycosides targeting RNA 16S bacterial ribosome site” (Eur J Med Chem, 2008).

Assay: Binding affinity to bacterial 16S RNA ribosomal A site by surface plasmon technique

SMILES | Kd [µM]
NC[C@H]1O[C@H](O[C@H]2[C@@H](NCCNC(=O)[C@H]3O[C@@H](n4ccc(=O)[nH]c4=O)[C@H](O)[C@@H]3O)[C@@H](O)[C@H](N)C[C@@H]2N)[C@H](N)[C@@H](O)[C@@H]1O | 13
NC[C@H]1O[C@H](O[C@H]2[C@@H](NCCNC(=O)[C@H]3O[C@@H](n4ccc(N)nc4=O)[C@H](O)[C@@H]3O)[C@@H](O)[C@H](N)C[C@@H]2N)[C@H](N)[C@@H](O)[C@@H]1O | 79
Cc1cn([C@H]2C[C@H](O)[C@@H](C(=O)NCCN[C@H]3[C@@H](O)[C@H](N)C[C@H](N)[C@H]3O[C@H]3O[C@H](CN)[C@@H](O)[C@H](O)[C@H]3N)O2)c(=O)[nH]c1=O | 9
NC[C@H]1O[C@H](O[C@H]2[C@@H](NCCNC(=O)[C@H]3O[C@@H](n4cnc5c(N)ncnc54)[C@H](O)[C@@H]3O)[C@@H](O)[C@H](N)C[C@@H]2N)[C@H](N)[C@@H](O)[C@@H]1O | 10
Cc1cn([C@@H]2O[C@H](C(=O)NCCCCCCN[C@H]3[C@@H](O)[C@H](N)C[C@H](N)[C@H]3O[C@H]3O[C@H](CN)[C@@H](O)[C@H](O)[C@H]3N)[C@@H](O)[C@H]2O)c(=O)[nH]c1=O | 38
NC[C@H]1O[C@H](O[C@H]2[C@@H](NCCCCCCNC(=O)[C@H]3O[C@@H](n4ccc(N)nc4=O)[C@H](O)[C@@H]3O)[C@@H](O)[C@H](N)C[C@@H]2N)[C@H](N)[C@@H](O)[C@@H]1O | 104
Cc1cn([C@H]2C[C@H](O)[C@@H](C(=O)NCCCCCCN[C@H]3[C@@H](O)[C@H](N)C[C@H](N)[C@H]3O[C@H]3O[C@H](CN)[C@@H](O)[C@H](O)[C@H]3N)O2)c(=O)[nH]c1=O | 56
NC[C@H]1O[C@H](O[C@H]2[C@@H](NCCCCCCNC(=O)[C@H]3O[C@@H](n4cnc5c(N)ncnc54)[C@H](O)[C@@H]3O)[C@@H](O)[C@H](N)C[C@@H]2N)[C@H](N)[C@@H](O)[C@@H]1O | 17
Cc1cn([C@H]2C[C@H](O)[C@@H](CSCCO[C@@H]3O[C@H](CO[C@@H]4O[C@H](CN)[C@@H](O)[C@H](O)[C@H]4N)[C@@H](O)[C@H](O)[C@H]3N)O2)c(=O)[nH]c1=O | 370
NC[C@H]1O[C@@H](OC[C@H]2O[C@@H](SCCCCCCSC[C@H]3O[C@@H](n4ccc(=O)[nH]c4=O)[C@H](O)[C@@H]3O)[C@H](N)[C@@H](O)[C@@H]2O)[C@H](N)[C@@H](O)[C@@H]1O | 1100
NC[C@H]1O[C@@H](OC[C@H]2O[C@@H](OC[C@H]3O[C@@H](n4ccc(=O)[nH]c4=O)[C@H](O)[C@@H]3O)[C@H](N)[C@@H](O)[C@@H]2O)[C@H](N)[C@@H](O)[C@@H]1O | 2000
Cc1cn([C@H]2C[C@H](O)[C@@H](CO[C@@H]3O[C@H](CO[C@@H]4O[C@H](CN)[C@@H](O)[C@H](O)[C@H]4N)[C@@H](O)[C@H](O)[C@H]3N)O2)c(=O)[nH]c1=O | 667
Cc1cn([C@H]2C[C@H](O)[C@@H](CSCCCCCCS[C@@H]3O[C@H](COC4O[C@H](CN)[C@@H](O)[C@H](O)[C@H]4N)[C@@H](O)[C@H](O)[C@H]3O)O2)c(=O)[nH]c1=O (stereo partly specified) | 400
NC[C@H]1O[C@@H](OC[C@H]2O[C@@H](OCCSC[C@H]3O[C@@H](n4ccc(N)nc4=O)[C@H](O)[C@@H]3O)[C@H](N)[C@@H](O)[C@@H]2O)[C@H](N)[C@@H](O)[C@@H]1O | 667
Cc1cn([C@H]2C[C@H](O)[C@@H](CSCCCCCCS[C@@H]3O[C@H](CN)[C@@H](O)[C@H](O)[C@H]3O)O2)c(=O)[nH]c1=O | 117
NC[C@H]1O[C@@H](SCCCCCCSC[C@H]2O[C@@H](n3ccc(=O)[nH]c3=O)[C@H](O)[C@@H]2O)[C@H](N)[C@@H](O)[C@@H]1O | 1250
